Test results published in patent US4442106A, “Quinoline derivatives, pharmaceutical compositions containing such compounds, and methods of treating cardiovascular conditions with them” (ACF Chemiefarma N.V., priority 1980, dated 1984).
Where two headings read alike, the source gives them in different places.

Key:
[1] = tested on: spontaneously hypertensive rats; experiment: Effectiveness in spontaneously hypertensive rats: systolic blood pressure by tail cuff method; type: in vivo; conditions: Rattus norvegicus, read-out: Change of systolic blood-pressures
Description: Experiment 1-Effectiveness of the compounds of Examples in spontaneously hypertensive rats
Systolic blood pressures were recorded by a modification of the tail cuff method described by I.M. Claxton et al., Eur. J.Pharmacology 37, 179 (1976). An oscilloscope or W+W BP recorder, model 8002, was used to display pulses.
Prior to all measurements rats were placed in a heated environment (33.5±0.5° C.) before transfer to a restraining cage. Each determination of blood pressure was the mean of at least 6 readings.
Spontaneously hypertensive rats (aged 12-18 weeks) with systolic blood pressures >170 mm Hg were considered hypertensive.
In the following table the results with certain compounds of the invention, which have been carried out with the above-described method, are mentioned. The numbers of the compounds correspond with those of the Examples.

[2] = tested on: right ventricle of the heart; experiment: Guinea Pigs Electrostimulation Test (arrhythmias by electrostimulation of the right ventricle of the heart); type: in vivo; conditions: Cavia porcellus, 0.5 h, 30 minutes before stimulation, read-out: Percent increase in voltage required for arrhythmia; for change in vivo at 32 mg/kg: standard dose 32 mg/kg intraduodenal
Description: Experiment 2-Effectiveness of the compounds of Examples in the Guinea Pigs Electrostimulation Test
Arrhythmias are induced in guinea pigs by electrostimulation of the right ventricle of the heart. The animals are anaesthesized with urethane (1.2 g/kg i.p.) and artificially respirated before a needle electrode is inserted in the right ventricle of the heart. Substances are given intraduodinally 30 minutes before the stimulation at a standard dose of 32 mg/kg. In some cases a different dose was used as indicated.
The voltage needed for induction of extra systoles in control animals (n=6) is compared with that required for induction of arrhythmias in treated animals (n=6).
This method is based on the work of L. Szekeres and G. J. Papp, Naunyn-Schmiedebergs Arch. Exp. Path. Pharmak., 245, 70 (1963).
In the table the results of certain compounds of the invention are mentioned, which have been carried out according to the method described above.
The numbers of the compounds correspond with those of the Examples.

SMILES | change in vivo at 10 mg/kg ([1]; 1 h) [%] | change in vivo at 10 mg/kg ([1]; 2 h) [%] | change in vivo at 10 mg/kg ([1]; 4 h) [%] | change in vivo at 10 mg/kg ([1]; 6 h) [%] | change in vivo at 10 mg/kg ([1]; 24 h) [%] | further results
CCCN1CC[C@@H](CCC(O)c2cc(C)nc3ccccc23)[C@@H](CC)C1 (stereo partly drawn) [Compound 38, N-propyl-2'-methyl-hydrocinchonicinol-1] | 1 | 0 | -3 | -4 | 0 | change in vivo at 16 mg/kg ([2]; intraduodenal): 31%
CCCN1CC[C@@H](CC(O)Cc2cc(OC)nc3ccc(OC)cc23)[C@@H](CC)C1 (stereo partly drawn) [Compound 56] | – | – | – | – | – | change in vivo at 20 mg/kg ([2]; at 20 mg/kg, intraduodenal): 112%
CCCc1cc(C(O)CC[C@@H]2CCN(CCC)C[C@@H]2CC)c2ccccc2n1 (stereo partly drawn) [Compound 41, N-propyl-2'-propyl-hydrocinchonicinol-1] | -6 | -11 | -15 | -17 | 3 | change in vivo at 8 mg/kg ([2]; intraduodenal): 101%
CCCc1cc(C(=O)CC[C@@H]2CCN(CCCC(=O)c3ccccc3)C[C@@H]2CC)c2ccccc2n1 [Compound 32, N-(3-benzoylpropyl)-2'-propyl-hydrocinchonicine] | -4 | -11 | -8 | -22 | -3 | change in vivo at 32 mg/kg [2]: 52%
CCCOc1cc(C(=O)CC[C@@H]2CCN(C)C[C@@H]2CC)c2ccccc2n1 [Compound 51, N-methyl-2'-propoxy-hydrocinchonicine.bioxalate] | – | – | – | – | – | change in vivo at 3 mg/kg ([1]; 1 h): -1%; change in vivo at 3 mg/kg ([1]; 2 h): 0%; change in vivo at 3 mg/kg ([1]; 4 h): -7%; change in vivo at 3 mg/kg ([1]; 6 h): -13%; change in vivo at 3 mg/kg ([1]; 24 h): -1%; change in vivo at 32 mg/kg [2]: -5%
CCCCCN1CC[C@@H](CCCc2cc(C)nc3ccccc23)[C@@H](CC)C1 [Compound 44, N-pentyl-2'-methyl-desoxo-hydrocinchonicine] | – | – | – | – | – | change in vivo at 100 mg/kg ([1]; 1 h): 2%; change in vivo at 100 mg/kg ([1]; 2 h): -15%; change in vivo at 100 mg/kg ([1]; 4 h): -30%; change in vivo at 100 mg/kg ([1]; 6 h): -43%; change in vivo at 100 mg/kg ([1]; 24 h): -6%
CCCN1CC[C@@H](CCCc2cc(C)nc3ccccc23)[C@@H](CC)C1 [Compound 43, 2'-Methyl-N-propyl-desoxo-hydrocinchonicine.bioxalate] | – | – | – | – | – | change in vivo at 100 mg/kg ([1]; 1 h): -1%; change in vivo at 100 mg/kg ([1]; 2 h): -12%; change in vivo at 100 mg/kg ([1]; 4 h): -28%; change in vivo at 100 mg/kg ([1]; 24 h): -15%; change in vivo at 32 mg/kg [2]: 9%
CCCCCN1CC[C@@H](CCC(=O)c2cc(CCC)nc3ccccc23)[C@@H](CC)C1 [Compound 31, N-pentyl-2'-propyl-hydrocinchonicine] | – | – | – | – | – | change in vivo at 32 mg/kg [2]: 31%
C=C[C@H]1CN(CCCC(=O)c2ccc(F)cc2)CC[C@H]1CCC(=O)c1cc(C)nc2ccccc12 [Compound 28] | -5 | -2 | -10 | -11 | 5 | –
CCCN1CC[C@@H](CC(O)Cc2cc(C(F)(F)F)nc3ccccc23)[C@@H](CC)C1 (stereo partly drawn) [Compound 59, 1-(2-trifluoromethyl-4-quinolyl)-3-[3(R)-ethyl-N-propyl-4(S)-piperidyl]-propanol-2] | – | – | – | – | – | change in vivo at 4 mg/kg ([2]; at 4 mg/kg, intraduodenal): 55%
CCCN1CC[C@@H](CC(O)Cc2cc(C(F)(F)F)nc3ccccc23)[C@@H](CC)C1 (stereo partly drawn) [Compound 60, N-propyl-2'-trifluoromethyl-hydrocinchonicinol-2] | – | – | – | – | – | change in vivo at 8 mg/kg ([2]; intraduodenal): 137%
CCCN1CC[C@@H](CCC(O)c2cc(C)nc3ccc(OC)cc23)[C@@H](CC)C1 (stereo partly drawn) [Compound 40, N-propyl-2'-methyl-hydroquinicinol-1] | – | – | – | – | – | change in vivo at 16 mg/kg ([2]; intraduodenal): 44%
CCCc1cc(C(O)CC[C@@H]2CCN(CCC)C[C@@H]2CC)c2cc(OC)ccc2n1 (stereo partly drawn) [Compound 42, N-propyl-2'-propyl-hydroquinicinol-1] | – | – | – | – | – | change in vivo at 16 mg/kg ([2]; intraduodenal): 74%
CCCCCN1CC[C@@H](CC(=O)Cc2cc(C(F)(F)F)nc3ccccc23)[C@@H](CC)C1 [Compound 64, 1-(2-Trifluoromethyl-4-quinolyl)-3-[3(R)-ethyl-N-pentyl-4(S)-piperidyl]-propanone-2.bifumarate] | – | – | – | – | – | change in vivo at 100 mg/kg ([1]; 1 h): -5%; change in vivo at 100 mg/kg ([1]; 2 h): -23%; change in vivo at 100 mg/kg ([1]; 4 h): -17%; change in vivo at 100 mg/kg ([1]; 6 h): -13%; change in vivo at 100 mg/kg ([1]; 24 h): -8%
CCCc1cc(C(=O)CC[C@@H]2CCN(CCC)C[C@@H]2CC)c2ccccc2n1 [Compound 30, N-propyl-2'-propyl-hydrocinchonicine] | – | – | – | – | – | change in vivo at 8 mg/kg ([2]; intraduodenal): 60%
CC[C@H]1CN(CCCC(=O)c2ccc(F)cc2)CC[C@H]1CCCc1cc(C)nc2ccc(OCCC(C)C)cc12 [Compound 47, N-[3-(4-fluorobenzoyl)propyl]-2'methyl-6'-isopentoxy-oxy-desoxo-hydrocinchonicine] | -26 | -21 | -30 | -22 | 0 | –
CC[C@H]1CN(C)CC[C@H]1CCC(=O)c1cc(OC)nc2ccccc12 [Compound 52, 2'-Methoxy-N-methyl-hydrocinchonicine.bioxalate] | – | – | – | – | – | change in vivo at 8 mg/kg ([2]; intraduodenal): 25%
CC[C@H]1CN(CCCC(c2ccc(F)cc2)c2ccc(F)cc2)CC[C@H]1CC(O)Cc1cc(OC)nc2ccccc12 (stereo partly drawn) [Compound 55] | -11 | -5 | -7 | -10 | -2 | –
CC[C@H]1CN(CCCC(=O)c2ccc(F)cc2)CC[C@H]1CCCc1cc(C(F)(F)F)nc2ccccc12 [Compound 50] | -4 | -16 | -16 | -13 | – | –
CC[C@H]1CN(CC(C)(C)O)CC[C@H]1CCC(=O)c1cc(C(C)C)nc2ccccc12 [Compound 36, N-(2-hydroxy-2-methylpropyl)-2'-isopropylhydrocinchonicine.bioxalate] | – | – | – | – | – | change in vivo at 32 mg/kg [2]: 91%
CCCN1CC[C@@H](CC(O)Cc2cc(C(F)(F)F)nc3ccccc23)[C@@H](CC)C1 (stereo partly drawn) [Compound 58, N-propyl-2'-trifluoromethyl-hydrocinchonicinol-2] | – | – | – | – | – | change in vivo at 10 mg/kg ([2]; at 10 mg/kg, intraduodenal): 133%
CCCN1CC[C@@H](CCCc2cc(O)nc3ccc(OC)cc23)[C@@H](CC)C1 [Compound 49] | – | – | – | – | – | change in vivo at 16 mg/kg ([2]; intraduodenal): 21%
CC[C@H]1CN(CCCC(=O)c2ccccc2)CC[C@H]1CCCc1cc(C)nc2ccccc12 [Compound 45, N-(3-benzoylpropyl)-2'-methyl-desoxo-hydrocinchonicine] | -14 | -6 | -14 | -21 | -2 | –
CC[C@H]1CN(CCCC(=O)c2ccc(F)cc2)CC[C@H]1CCCc1cc(C)nc2ccccc12 [Compound 46, N-[3-(4-fluorobenzoyl)propyl]-2'-methyl-desoxo-hydrocinchonicine] | -22 | -24 | -20 | -20 | -1 | –
CCCN1CC[C@@H](CCCc2cc(O)nc3ccccc23)[C@@H](CC)C1 [Compound 48] | – | – | – | – | – | change in vivo at 16 mg/kg ([2]; intraduodenal): 19%
CC[C@H]1CN(CC(C)(C)O)CC[C@H]1CCC(=NOC)c1cc(C)nc2ccccc12 [Compound 66, N-(2-Hydroxy-2-methylpropyl)-2'-methyl-hydrocinchonicine-O-methyl oxime ether.bioxalate] | – | – | – | – | – | change in vivo at 16 mg/kg ([2]; intraduodenal): 43%
